From patent US8835433B2, “Optically pure diastereomers of 10-Propargyl-10-deazaaminopterin and methods of using same for the treatment of cancer” (Allos Therapeutics, Inc., priority 2010, dated 2014)

Experiments:
[1] = tested on: tumor xenotransplant; assay: In vivo xenograft models with solid tumors and lymphomas; settings: nude female mice, IP injection; some / other explants; Example 6
Description: Nude female mice are inoculated subcutaneously in the right flank with appropriate tumor cells as discussed in Example 5 to establish the xenotransplant. Tumor volume and body weights are monitored twice a week. Once the established tumor reaches 75-150 mm^3 the mice are randomized to a treatment group, either control, racemic PDX, PDX-10a, or PDX-10b. Treatments are administered by IP injection. Phosphate buffered saline is administered as control vehicles.

[2] = tested on: type II collagen arthritis; assay: Type II collagen arthritis rat model; assay type: in vivo; settings: female Lewis rats, 0.075, 0.05 or 0.025 mg/kg qd; some / other components/aspects of the arthritis; Example 8
Description: Female Lewis rats with 17-day developing type II collagen arthritis are treated once daily (qd), orally or intravenously, on days 0-16 of the study with saline vehicle (qd), with Methotrexate (MTX, 0.075, 0.05, or 0.025 mg/kg), or racemic PDX, PDX-10a and PDX-10b (0.075, 0.05, or 0.025 mg/kg). Animals are terminated on study day 17. Efficacy evaluation is based on ankle caliper measurements, expressed as area under the curve (AUC), and terminal hind paw weights, and histopathologic evaluation of ankles and knees.

C#CC[C@H](Cc1cnc2nc(N)nc(N)c2n1)c1ccc(C(=O)N[C@@H](CCC(=O)O)C(=O)O)cc1 (single isomer, unassigned) [PDX-10b]
xenograft activity relative to racemate and other diastereomer [1]: increased activity relative to racemic PDX and/or PDX-10a
antiarthritic activity relative to racemate and other diastereomer [2]: increased activity relative to racemic PDX and/or PDX-10a

C#CC[C@@H](Cc1cnc2nc(N)nc(N)c2n1)c1ccc(C(=O)N[C@@H](CCC(=O)O)C(=O)O)cc1 (single isomer, unassigned) [PDX-10a]
xenograft activity relative to racemate and other diastereomer [1]: increased activity relative to racemic PDX and/or PDX-10b
antiarthritic activity relative to racemate and other diastereomer [2]: increased activity relative to racemic PDX and/or PDX-10b
